These results are taken from ChEMBL document CHEMBL1201862, “PubChem BioAssay data set” (2004).

Test systems include OVCAR-4; SK-MEL-2; HOP-62; SK-MEL-5; MDA-MB-231; NCI-H460; BT-549; NCI-H226; LOX IMVI; UACC-257; PC-3; A549; MDA-MB-435; OVCAR-5; CAKI-1; UO-31; RPMI-8226; SNB-19; HCT-116; HCC 2998.
Holding throughout (assay): NCI tumour cell line growth inhibition, 48 h

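Results reflect a 48-hour exposure of cells in 96-well plates to compound at five concentrations. The concentration for 50% growth inhibition is given as GI50.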 Active and inactive are the calls of the source. Cut-off read from the data, not from the text of the source: active = GI50 up to about 1.1 µM and inactive = higher. A value given as a limit tells only on which side of the number the result lay.

For the compound `CSC1=NC(C(N)=O)C(N)N1C` (centres undefined), the GI50 with OVCAR-4 is > 100 µM (inactive); in the test with SK-MEL-2, > 100 µM (inactive); with HOP-62, > 100 µM (inactive); in the test with SK-MEL-5 it was > 100 µM (inactive); in the test with MDA-MB-231, 38.6 µM (inactive); with NCI-H460, > 100 µM (inactive). The GI50 in the test with BT-549, in the test with NCI-H226, with LOX IMVI, in the test on UACC-257, with PC-3 and in the test on A549 was > 100 µM (inactive) each time. For the same compound, the GI50 in the test on MDA-MB-435, with OVCAR-5, with CAKI-1, in the test with UO-31, in the test on RPMI-8226 and with SNB-19 was > 100 µM (inactive) in each case. Also, the GI50 with HCT-116 is > 100 µM (inactive).
`Nc1ccc2nc(-c3cccc(Cl)c3)cc(O)c2c1`: the GI50 was 5.87 µM (inactive) with HOP-62; 3.58 µM (inactive) in the test with SK-MEL-5; 26.5 µM (inactive) in the test with MDA-MB-231; 4.39 µM (inactive) in the test with NCI-H460; 5.45 µM (inactive) with BT-549; > 100 µM (inactive) with UACC-257. Moreover, the GI50 in the test with PC-3 is 2.47 µM (inactive); with A549, 6.15 µM (inactive); with HCC 2998, 6.73 µM (inactive); in the test with MDA-MB-435, 0.738 µM (active); in the test with OVCAR-5, > 100 µM (inactive); with SNB-19, 5.83 µM (inactive).
Regarding `COCN1C(=O)[C@@H]2CCCN2C(=O)c2cc([N+](=O)[O-])ccc21`, the GI50 in the test with OVCAR-4 is 76.9 µM (inactive); in the test with SK-MEL-2, 64.1 µM (inactive); in the test with HOP-62, 41.1 µM (inactive); in the test on SK-MEL-5, 70.1 µM (inactive); with MDA-MB-231, 61.1 µM (inactive); in the test on BT-549, 62.5 µM (inactive). In addition, the GI50 with NCI-H226 was 2.21 µM (inactive); with LOX IMVI, 26.3 µM (inactive); in the test on UACC-257, > 100 µM (inactive); with PC-3 it was 36.3 µM (inactive); in the test on A549, 88.3 µM (inactive); in the test on MDA-MB-435, 66.2 µM (inactive). Besides, the GI50 in the test with OVCAR-5 was 52.7 µM (inactive); with CAKI-1, 76.7 µM (inactive); with UO-31, 35.5 µM (inactive); in the test with SNB-19 it was 96.6 µM (inactive); in the test on HCT-116 it was 86.9 µM (inactive).
`COc1cc(Br)cc2cc(C3=CSC4=NCCN34)c(=O)oc12`: the GI50 with OVCAR-4 was 18.2 µM (inactive); in the test with SK-MEL-2, 20.3 µM (inactive); in the test on HOP-62, 19.3 µM (inactive); in the test with SK-MEL-5 it was 20 µM (inactive); with MDA-MB-231, 19.6 µM (inactive); with NCI-H460 it was 19.9 µM (inactive). Moreover, the GI50 with BT-549 was 22 µM (inactive); in the test with LOX IMVI it was 18.2 µM (inactive); with UACC-257 it was 25.3 µM (inactive); in the test with PC-3, 18.3 µM (inactive); in the test on A549 it was 21.3 µM (inactive); with MDA-MB-435, 17.8 µM (inactive). The GI50 was 23.3 µM (inactive) with OVCAR-5; 34.7 µM (inactive) with CAKI-1; 19.3 µM (inactive) with UO-31; 22.7 µM (inactive) in the test on RPMI-8226; 18.1 µM (inactive) in the test with SNB-19; 17.8 µM (inactive) with HCT-116.
For `O=C(COc1ccc(Cl)c(Cl)c1)Nc1ccc[n+](Cc2ccc(S(=O)(=O)F)c(Cl)c2)c1`, the GI50 with OVCAR-4 was > 100 µM (inactive); in the test on SK-MEL-2 it was > 100 µM (inactive); with HOP-62, > 100 µM (inactive); in the test on SK-MEL-5, > 100 µM (inactive); in the test on MDA-MB-231, 36.6 µM (inactive); in the test with NCI-H460, > 100 µM (inactive). In addition, the GI50 in the test with BT-549, in the test with NCI-H226, in the test on UACC-257, with PC-3, with A549 and in the test with MDA-MB-435 was > 100 µM (inactive) throughout. In addition, the GI50 in the test on OVCAR-5 is > 100 µM (inactive); with CAKI-1 it was > 100 µM (inactive); with UO-31 it was > 100 µM (inactive); with RPMI-8226, 1.02 µM (active); in the test with SNB-19 it was > 100 µM (inactive); with HCT-116, > 100 µM (inactive).
